For assay [1], the system named is cancer, cardiac and neuronal cell lines. As to the kind of experiment: Categorisation of active ADPs as pro-/anti-apoptotic (Example 15). The settings on record: criteria of Example 15.
Assay [2] in a line: Effectiveness of ADPs (Example 1, Table 6; cell death assays of FIGS. 10-13). Type of assay: cell-based. The conditions noted are these: ADPs with N-terminal tumor penetrating peptide and C-terminal fluorescent tag; graded in words. From the text: FIGS. 10A-C show the sequences mapped, peptide blots, imaging to show expression and cell death assays for these three peptides. A) PPA-1 (PEPTIDE23) (SEQ ID NO:23), B) PPA4 (PEPTIDE19) (SEQ ID NO:19), C) PPA10 (PEPTIDE16 including FF at C-terminus) (SEQ ID NO:16).
FIGS. 11A-B show the sequences mapped, peptide blots, imaging to show expression and cell death assays for these HSP-70 peptides. A) PHA4 (PEPTIDE5) (SEQ ID NO:5), B) PHA5 (PEPTIDE13 plus C-terminal L) (SEQ IDS NO: 13).
FIGS. 12A-C show the sequences mapped, peptide blots, imaging to show expression and cell death assays for these p65 (RELA) peptides. A) PRA1 (PEPTIDE14) (SEQ ID NO:14), B) PRA8 (PEPTIDE8) (SEQ ID NO:8), C) PRA9 (SEQ ID Nos:33 and 37-45).
FIGS. 13A-D show the sequences mapped, peptide blots, imaging to show expression and cell death assays for these HSP-70 peptides. A) PAA1-1 (PEPTIDE11) (SEQ ID NO:11), B) PPA1-3 (PEPTIDE15) (SEQ ID NO:15), C) PAR1 (PEPTIDE19), D) Paint 1 (PEPTIDE7) (SEQ ID NO:7).
ADPs were first identified using Peptide SPOT analysis. Peptides were identified from AKIP1. PKAc, HSP-70 and p65 sequences. The identified ADPs were attached at the N-terminus to tumor penetrating peptide based on the CENDR rule (FIG. 9). A fluorescent tag was attached to the C-terminus for ease of visualization.
To test these ADPs, CRISPR based AKIP1 knock-out cell lines were generated in HEK 293 and glioblastoma cell lines. Further, all the isoforms of AKIP1 were reintroduced into the AKIP1 knock-out glioblastoma cell lines.

Assay [3] relates to cancer, cardiac and neuronal cell lines. As to the kind of experiment: Categorisation of active ADPs as pro-/anti-apoptotic (Example 15). The conditions noted are these: depending on cell type. From the text: 2) improved cell viability in cardiac or neuronal cell lines and decreased viability in at least 2 cancer cell lines.
The test system of assay [4] is U87-MG cells. As to the kind of experiment: Caspase-Glo 3/7 apoptotic assay. It counts as cell-based, human. The settings on record: cut-off value at 20 over scrambled control with P Value <0.05%. How it is done:
Caspase-Glo® 3/7 assays (Promega) were performed according to the manufacturer's protocol. Briefly, 15,000-20,000 cells were seeded in a 96 well white flat bottom plate. The peptide constructs were transfected in triplicates using Lipofectamine 3000. Twenty four hour post-transfection, the cells were equilibrated at room temperature and Caspase-Glo® 3/7 reagent was dispensed into each well and the luminescent signal was measured 30-60 mins incubation at room temperature. The blank reaction was used to measure background luminescence associated with the cell culture system and Caspase-Glo® 3/7 Reagent alone. The value for the blank reaction was subtracted from experimental values to obtain the relative luminescence values (RLU). The percentage change over the Scrambled control was calculated from the mean as follows: [(Mean peptide RLU-Mean Scr RLU)/Scr RLU*100]. The P value was calculated using the Student t Test.
The efficacy of the 25 disclosed peptides to cause apoptosis in the U87-MG cells was measured using Caspase-Glo® 3/7 Assay. For each of the peptides, the percentage change over the scrambled control was tabulated and a cut-off value at 20 with a P Value of <0.05%.

Take “RRAVDWHALERPKGCMGVLAREAPHLEKQPAAGPQRVLPGE [PEPTIDE3]”: the “Pro-apoptotic (anti-angiogenic) category” value in assay [1] is given as “Pro-apoptotic (anti-angiogenic)”. Turning to LNGVDRRSLQRSARLALEVLERAK [PEPTIDE11], the Effectiveness result in assay [2] is reported as “High”. Moreover, in assay [3], the “both pro and anti-apoptotic effect” value was “both pro and anti-apoptotic effect”. Moreover, in assay [1], the “Pro-apoptotic (anti-angiogenic) category” value is recorded as “Pro-apoptotic (anti-angiogenic)” and the “anti-apoptotic (pro-angiogenic) category” value is “anti-apoptotic (pro-angiogenic)”. As to PLIFPAEPAQASGPYVEIIEQPKQ [PEPTIDE14], the Effectiveness result in assay [2] is reported as “High”. Besides, in assay [1], the “Pro-apoptotic (anti-angiogenic) category” value is on record as “Pro-apoptotic (anti-angiogenic)”.

RKDRKKTSLGPGGSYQISEHAPEASQP [PEPTIDE2]: the “Pro-apoptotic (anti-angiogenic) category” value in assay [1] is on record as “Pro-apoptotic (anti-angiogenic)”. Consider “VTVGSNDLTKKTHVVAVDSGQSVDLVFPV [PEPTIDE4]”, for which the “both pro and anti-apoptotic effect” value in assay [3] is “both pro and anti-apoptotic effect”. Further, in assay [1], the “Pro-apoptotic (anti-angiogenic) category” value is “Pro-apoptotic (anti-angiogenic)” and the “anti-apoptotic (pro-angiogenic) category” value is given as “anti-apoptotic (pro-angiogenic)”. Turning to REERPPTLSASFRTMAEFMDYTSSQCG [PEPTIDE1], the “Pro-apoptotic (anti-angiogenic) category” value in assay [1] is “Pro-apoptotic (anti-angiogenic)”. On the same count and under the same terms, the same measure for VKKRDLEQAISQRIQTNNN [PEPTIDE18]: “Pro-apoptotic (anti-angiogenic)”.

With “VKKRDLEQAISQRIQTNNNPFQVPIEEQRGDYDLNAVR [PEPTIDE8]”, the Effectiveness entry in assay [2] is “Moderate”. In assay [3], the “both pro and anti-apoptotic effect” value was “both pro and anti-apoptotic effect”. In addition, in assay [1], the “Pro-apoptotic (anti-angiogenic) category” value is recorded as “Pro-apoptotic (anti-angiogenic)” and the “anti-apoptotic (pro-angiogenic) category” value was “anti-apoptotic (pro-angiogenic)”.

As to “SHFSEHTALWDRSMKEFLAKAKEDFLKK [PEPTIDE10]”, the “both pro and anti-apoptotic effect” value in assay [3] was “both pro and anti-apoptotic effect”. For the same sequence, in assay [1], the “Pro-apoptotic (anti-angiogenic) category” value is listed as “Pro-apoptotic (anti-angiogenic)” and the “anti-apoptotic (pro-angiogenic) category” value is “anti-apoptotic (pro-angiogenic)”. As to “IMQDKLEKERNDAKNAVEEYVYEMRDKLSGEYEKFVSEDDRNSFTLKLEDTENWL [PHA 5, PEPTIDE13 without the C-terminal Y]”, in assay [2], the Effectiveness result is “High”.

As to “IMQDKLEKERNDAKNAVEEYVYEMRDKLSGEYEKFVSEDDRNSFTLKLEDTENWLY [PEPTIDE13]”, the “Pro-apoptotic (anti-angiogenic) category” value in assay [1] is “Pro-apoptotic (anti-angiogenic)”. In the case of DIGNGQRKDRKKTSLGPGGSYQISEHA [PEPTIDE5], the Effectiveness entry in assay [2] is “High”. For the same sequence, the “Pro-apoptotic (anti-angiogenic) category” value in assay [1] was “Pro-apoptotic (anti-angiogenic)”. For KYYSSVPEEGGATHVYRYHRGESKLHM [PEPTIDE9] the same measures were “High” and “Pro-apoptotic (anti-angiogenic)”.

For “DNCLAAAALNGVDRRSLQRSAKLALEVLERAKRR [PAint]”, the Effectiveness result in assay [2] is “Moderate”. With STDPAVFTDLASVDNSEFQQLLNQG [PEPTIDE25], the “apoptosis in U87-MG cells (in words)” value in assay [4] is on record as “very low apoptosis”. With “GGSYQISEHAPEASQPAENISKDLYIEVYPGTYS [PEPTIDE7]”, the Effectiveness entry in assay [2] is “Low”. The “Pro-apoptotic (anti-angiogenic) category” value in assay [1] is “Pro-apoptotic (anti-angiogenic)”. Consider “DNCLAAAALNGVDRRSLQRSARLALEVLERAKR [PEPTIDE12]”, for which the “anti-apoptotic (pro-angiogenic) category” value in assay [1] is “anti-apoptotic (pro-angiogenic)”. In the case of DWWALGVLIYEMAAGYPP [PEPTIDE17], the “Pro-apoptotic (anti-angiogenic) category” value in assay [1] is recorded as “Pro-apoptotic (anti-angiogenic)”. “FTDLASVONSEFQQLLNQ (FTDLASVDNSEFQQLLNQ) [PEPTIDE24]”: the “apoptosis in U87-MG cells (in words)” value in assay [4] is given as “very low apoptosis”.

The values above are taken from patent US11608367B2, “Peptides for angiogenic therapy” (The Regents of the University of California, priority 2018, dated 2023).
